Laboratory results published in patent publication US20210403415A1, “COMPOUNDS AND METHODS TO ATTENUATE TUMOR PROGRESSION AND METASTASIS” (THE TRUSTEES OF INDIANA UNIVERSITY, priority 2018, published 2021).
Where two headings read alike, the source gives them in different places.

Legend:
TEAD4 [1] = molecular target: T1, TEAD4 (Homo sapiens, UniProt Q15561); assay: Whole protein ESI mass spectrometry, adduct formation; format: binding; parameters: TEAD4 (217-434), TEAD4 (217-434) Cys367Ser mutant and Yap1 (Full-length) were expressed as GST-fusion proteins; GST (N, cleaved yes); made in house; host or cells: E. coli BL-21 (DE3), pGEX-6P-1; conditions: for covalent adduct formation with TEAD4 / adduct with TEAD4: 10 μM TEAD4, 200 μM compound, 24 h at 4° C.
Protocol: (§1) The samples were centrifuged at 20,000×g for […] to remove precipitants before being injected into an empty column on an Agilent 1200 liquid chromatography system (Agilent, Santa Clara, Calif.), using 80% Buffer A (H2O, 5 mM NH4OAc) and 20% Buffer B (ACN, 5 mM NH4OAc), and the masses were detected on an Agilent 6520 Accurate Mass Q-TOF.
It was determined whether a covalent bond formed between inventive compounds and TEAD4. […] The covalent adduct formation by compound 2 was relatively fast (FIG. 3G), reaching nearly 100% adduct formation after 30 min incubation with TEAD4. Because the rate of inhibition developed over a longer timescale (FIG. 3C), compound 2 is proposed to induce a slow conformational change in TEAD4 that prevents its interaction with Yap1. To rule out the possibility that compound 2 induces slow aggregation of TEAD4, and not the proposed slow conformational change, GST-TEAD4 was incubated with DMSO compound 2 for 24 h at 4° C., followed by injection into an SEC column (FIG. 3H). […] A slight increase in dimer formation for the TEAD4 sample incubated with compound 2 occurred compared to the sample incubated with DMSO. […] Furthermore, it is highly unlikely that Cys-367 oxidation was responsible for the lack of 100% inhibition at longer times since it has been shown that covalent bond formation is rapid and complete within less than an hour.
Target sequence in this assay (Q15561 217-434): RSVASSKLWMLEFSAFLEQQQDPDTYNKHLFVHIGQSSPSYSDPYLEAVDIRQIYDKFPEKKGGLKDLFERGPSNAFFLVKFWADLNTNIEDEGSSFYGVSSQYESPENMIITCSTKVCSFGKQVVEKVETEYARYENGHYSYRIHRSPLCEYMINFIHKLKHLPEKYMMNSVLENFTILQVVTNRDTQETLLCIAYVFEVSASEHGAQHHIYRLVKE

TEAD4.Yap1 interaction [2] = molecular target: T2, TEAD4.Yap1 interaction (Homo sapiens, UniProt Q15561); assay: Fluorescence polarization, GST-TEAD4 with FAM-Yap60-99 peptide; format: binding; parameters: TEAD4 (217-434), TEAD4 (217-434) Cys367Ser mutant and Yap1 (Full-length) were expressed as GST-fusion proteins; made in house; host or cells: E. coli BL-21 (DE3), pGEX-6P-1; conditions: for inhibition / maximum inhibition of TEAD4.Yap1 interaction: 24 h incubation at 4° C.; for t1/2^∞ (half-life of inactivation): corresponding to kinact; for inhibition of TEAD4.Yap1 interaction: FP assay, 24 h at 4° C.
T2 sequence (Q15561 217-434): as above
Protocol: (§2) GST-TEAD4, GST-TEAD4 Cys367Ser mutant or HIS-TEAD2 interaction with Yap1 was investigated using a fluorescently-labeled peptide (FAM-Yap60-99), consisting of FAM-labeled TEAD-binding peptide fragment of Yap1 (FAM-[…] TVPMCLRKLPASFCKPP), which has a disulfide bridge (American Peptide, Sunnyvale, Calif.). Addition of FAM-Yap60-99 to the TEAD was followed by measurement of changes in polarization. 40 μL of 125 nM GST-TEAD4 WT or GST-TEAD4 Cys367Ser in assay buffer (PBS with 0.01% v/v Triton-X100) or 40 μL of 64 nM HIS-TEAD2 was added to a 384-well black polystyrene plate (Cat. No. 262260; Nunc, Roskilde, Denmark) and incubated with 5 μL of […] serially diluted compounds in assay buffer supplemented with 20% v/v DMSO for 24 h at 4° C. Finally, 5 μL of 160 nM FAM-Yap60-99 peptide was added, the plate centrifuged, and the polarization was measured on an Envision Multilabel Plate Reader (PerkinElmer, Waltham, Mass.) using a filter set with excitation and emission wavelengths of 485 and 535 nm, respectively. Percent inhibition was calculated as relative to a minimum inhibition control, which is without compound, and a maximum inhibition control, which is without a TEAD.
For the determination of the inhibition efficiency kinact/K1, the protein compound incubation time was varied between […], prior to the addition of the FAM-Yap60-99 peptide and fluorescence polarization measurements. The progressive decrease in TEAD activities were plotted against time for all 10 concentrations ([…]) of the compounds and the observed rate of inhibition (kobs) was calculated by fitting a simple exponential function.
The observed rate of inhibition was then plotted against the concentration of the compound and a […] function kobs=kinact[Inhibitor]/K1+[Inhibitor] was fitted to determine the kinact and K1 values.

TEAD2 binding to Yap1 = molecular target: T3, TEAD2 binding to Yap1 (Homo sapiens, UniProt Q15562); assay: Fluorescence polarization, HIS-TEAD2 with FAM-Yap60-99 peptide; conditions: 24 h at 4° C.
T3 construct: TEAD2 (217-447) was expressed as N-terminal HIS-fusion protein; made in house; host or cells: E. coli BL-21 (DE3), pET-28a
T3 sequence (Q15562 217-447): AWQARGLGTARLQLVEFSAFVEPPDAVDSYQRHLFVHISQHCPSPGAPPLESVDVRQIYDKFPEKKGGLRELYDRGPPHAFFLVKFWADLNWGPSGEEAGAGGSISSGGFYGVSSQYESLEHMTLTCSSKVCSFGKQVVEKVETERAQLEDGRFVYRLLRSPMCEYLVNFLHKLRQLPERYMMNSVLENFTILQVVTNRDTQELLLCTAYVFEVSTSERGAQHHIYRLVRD
Protocol: as §2

TEAD4.Yap1 interaction [3] = molecular target: T2, TEAD4.Yap1 interaction; assay: Fluorescence polarization, GST-TEAD4 with FAM-Yap60-99 peptide; format: binding; parameters: TEAD4 (217-434), TEAD4 (217-434) Cys367Ser mutant and Yap1 (Full-length) were expressed as GST-fusion proteins; made in house; host or cells: E. coli BL-21 (DE3), pGEX-6P-1; conditions: 0.5, 6, 24, 48 h incubation at 4° C., 0.1-100 μM
TEAD4 [4] = molecular target: T1, TEAD4; assay: Covalent streptavidin pull down of myc-TEAD4 from HEK293 cell lysates; format: cell-based; parameters: expressed in transfected cells; host or cells: HEK293; conditions: added to cell lysates
Protocol: HEK293 cells transfected with the myc-TEAD4 construct were grown for 48 h and then treated with DMSO or with 25 μM of compound 2 for an additional 48 h. Cells were then harvested in lysis buffer (50 mM Tris-HCl, pH 7.3, 150 mM NaCl, 0.5 mM EDTA, 1% Triton X-100, PhosSTOP phosphatase inhibitor cocktail, and EDTA-free protease inhibitors cocktail). Cell lysates containing 2 mg of protein were incubated with the indicated compounds or DMSO for 24 h. Extracts were then incubated with Dynabeads M-280 Streptavidin (Sigma-Aldrich) for 2 h at 4° C. Dynabeads were then washed and bound proteins were denatured and eluted according to the manufacturer's instructions. Relative levels of myc-TEAD4 from each complex were measured by immunoblot analysis with the anti-c-Myc antibody (1:5,000, Sigma-Aldrich).
Target sequence in this assay (Q15561 whole entry, the tested form may be a part): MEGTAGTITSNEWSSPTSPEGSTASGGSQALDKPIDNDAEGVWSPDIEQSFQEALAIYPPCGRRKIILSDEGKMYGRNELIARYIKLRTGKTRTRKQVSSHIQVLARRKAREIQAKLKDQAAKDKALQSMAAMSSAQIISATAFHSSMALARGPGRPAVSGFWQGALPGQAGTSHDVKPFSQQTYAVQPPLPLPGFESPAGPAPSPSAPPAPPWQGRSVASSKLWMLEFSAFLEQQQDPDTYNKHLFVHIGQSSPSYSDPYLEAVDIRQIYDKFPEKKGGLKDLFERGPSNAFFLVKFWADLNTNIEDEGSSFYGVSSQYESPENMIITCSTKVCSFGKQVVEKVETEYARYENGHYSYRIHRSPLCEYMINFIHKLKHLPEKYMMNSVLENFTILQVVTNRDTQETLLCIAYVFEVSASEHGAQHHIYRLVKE

[5] = system: patient-derived GBM43 glioblastoma spheroids; assay: GBM43 spheroid viability (Alamar blue); format: cell-based, human; conditions: Homo sapiens; three-dimensional spheroids; read-out: EC50, inhibition of GBM43 spheroid growth
Protocol: Early-passage GBM43 cells were cultured in ultralow adherence plates (Corning Inc.) at 1 to 2×10^3 cells/mL in DMEM supplemented with 1% […] (Invitrogen), 2% B27 (Invitrogen), 25 ng/mL epidermal growth factor (EGF, 25 ng/mL fibroblast growth factor (FGF) (R&D Systems, Inc.), […], 2 ng/mL platelet growth factor, and 100 ng/mL each of penicillin and streptomycin (Invitrogen Inc.). Individual cells were recovered from spheres by incubation with Accutase (Sigma-Aldrich) for 10-15 minutes. Cells (50-100/well) were then seeded in fresh sphere-forming media in 96-well plates. After 2-3 days, Neurospheres containing 6 to 8 cells were treated with compounds 1, 2, and 5.
HEK-293 were cultured in DMEM with glutamine (Cellgro, Manassas, Va.) supplemented with 10% FBS and 1% penicillin/streptomycin in a 5% CO2 atmosphere at 37° C. Tumors were expanded by passage in the flank of NOD/SCIDγnull mice. To generate GBM43 cell lines, tumors were harvested, disaggregated, and maintained in 2.5% FBS for 14 days on Matrigel-coated plates (BD Biosciences) to remove murine fibroblasts. In-vitro GBM43 cell lines were propagated in DMEM with 10% FBS for no more than 7 passages. Cell line identity was confirmed by DNA fingerprint analysis (IDEXX BioResearch) for species and baseline short-tandem repeat analysis testing. GBM43 spheroids were generated by plating early-passage cells at 2.5×10^4 cells per well in 96-well ultralow attachment plates (Corning Inc.) in DMEM/F12 (1:1; GIBCO) supplemented with 2% B27 supplement (GIBCO), 20 ng/mL epidermal growth factor (EGF), and 20 ng/mL fibroblast growth factor (FGF) (Peprotech) for 2 days. The spheroids were then treated with compounds 1, 2, and 5 and growth analyzed by Alamar blue staining.

TEAD4 Cys367Ser mutant = molecular target: T4, TEAD4 Cys367Ser mutant (Homo sapiens, UniProt Q15561, C367S); assay: Whole protein ESI mass spectrometry, adduct formation with mutant; format: binding; conditions: 5 μM mutant, 12.5, 50, 200 μM at 4° C., 24 h
T4 construct: TEAD4 (217-434) Cys367Ser mutant and Yap1 (Full-length) were expressed as GST-fusion proteins; made in house; host or cells: E. coli BL-21 (DE3), pGEX-6P-1
T4 sequence (Q15561 217-434 C367S): as the sequence (Q15561 217-434) above, with C151S counted along it
Protocol: as §1
FIG. 4A illustrates analysis by ESI mass spectrometry after 10 μM TEAD4 Cys367Ser mutant was incubated with 200 μM compound for 24 h at 4° C. FIG. 4B illustrates measurement of fluorescence polarization due to binding when increasing concentration of TEAD4 Cys367Ser mutant was mixed with 16 nM FAM-Yap60-99 peptide (mean±s.d.; n=3). FIG. 4C illustrates measurement of fluorescence polarization due to binding when TEAD4 Cys367Ser mutant was incubated with increasing concentration of compounds for 24 h at 4° C. followed by addition of FAM-Yap60-99 (mean±s.d.; n=3).

[6] = as tested described herein, read-out: EC50 in the EC50 assay

COCCOc1cccc(Nc2ccccc2C(=O)CCl)c1 [Compound 4, 2-chloro-1-(2-((3-(2-methoxyethoxy)phenyl)amino)phenyl)ethanone]
covalent adduct formation with TEAD4 (TEAD4 [1]): formed single adducts
inhibition / maximum inhibition of TEAD4.Yap1 interaction (TEAD4.Yap1 interaction [2]): 31%
apparent EC50, inhibition of TEAD4.Yap1 protein-protein interaction (TEAD4.Yap1 interaction [2]; 24 h incubation with TEAD4 at 4° C.): substantially lower (nearly an order of magnitude) than its parent compound 2
t1/2^∞ (half-life of inactivation) (TEAD4.Yap1 interaction [2]): 67.3 h
inhibition of TEAD2 binding to Yap1 (TEAD2 binding to Yap1): much weaker inhibitors of TEAD2 compared to TEAD4
kinact (TEAD4.Yap1 interaction [3]; read-out: maximum rate of inactivation (kinact) (converted)): 2.78e-06 s⁻¹

COc1ccc(C(=O)CCl)c(Nc2cccc(C(F)(F)F)c2)c1 [Compound 6, 2-chloro-1-(4-methoxy-2-((3-(trifluoromethyl)phenyl)amino)phenyl)ethanone]
covalent adduct formation with TEAD4 (TEAD4 [1]): formed single adducts
inhibition / maximum inhibition of TEAD4.Yap1 interaction (TEAD4.Yap1 interaction [2]): 51%
EC50 (TEAD4.Yap1 interaction [2]; 24 h incubation with TEAD4 at 4° C., read-out: apparent EC50, inhibition of TEAD4.Yap1 protein-protein interaction): 2.3 ± 0.8 µM
t1/2^∞ (half-life of inactivation) (TEAD4.Yap1 interaction [2]): 20 h
inhibition of TEAD2 binding to Yap1 (TEAD2 binding to Yap1): much weaker inhibitors of TEAD2 compared to TEAD4
kinact (TEAD4.Yap1 interaction [3]; read-out: rate of inactivation kinact (converted)): 9.44e-06 s⁻¹

O=C(CCl)c1ccccc1Nc1ccc(-c2cccs2)cc1 [Compound 7, 2-chloro-1-(2-((4-(thiophen-2-yl)phenyl)amino)phenyl)ethanone]
adduct with TEAD4 (TEAD4 [1]): 100%
covalent adduct formation with TEAD4 (TEAD4 [1]): formed single adducts
inhibition of TEAD4.Yap1 interaction (TEAD4.Yap1 interaction [2]): lack of TEAD4 inhibition

O=C(CCl)c1ccccc1Nc1cccc(-c2cccs2)c1 [Compound 8, 2-chloro-1-(2-((3-(thiophen-2-yl)phenyl)amino)phenyl)ethanone]
adduct with TEAD4 (TEAD4 [1]): 100%
covalent adduct formation with TEAD4 (TEAD4 [1]): formed single adducts
inhibition of TEAD4.Yap1 interaction (TEAD4.Yap1 interaction [2]): lack of TEAD4 inhibition

O=C(CCCCC1SCC2NC(=O)NC21)NCCOCCOCCCCCOc1cccc(Nc2ccccc2C(=O)CCl)c1 (stereo not shown) [Compound 9, N-(2-(2-((5-(3-((2-(2-chloroacetyl)phenyl)amino)phenoxy)pentyl)oxy)ethoxy)ethyl)-5-(2-oxohexahydro-1H-thieno[3,4-d]imidazol-4-yl)pentanamide]
TEAD4 in streptavidin pull-down, immunoblot (TEAD4 [4]): TEAD4 was specifically detected

O=C(CF)c1ccccc1Nc1cccc(C(F)(F)F)c1 [Example 10, 2-fluoro-1-(2-((3-(trifluoromethyl)phenyl)amino)phenyl) ethanone]
inhibition of TEAD4.Yap1 interaction (TEAD4.Yap1 interaction [2]): minimal inhibition

O=C(CCl)Nc1ccccc1Nc1cccc(C(F)(F)F)c1 [Example 11, 2-chloro-N-(2-((3-(trifluoromethyl)phenyl)amino)phenyl) acetamide]
max (inhibition) in the EC50 assay (TEAD4.Yap1 interaction [2]; as tested described herein): 50%
EC50 (TEAD4.Yap1 interaction [2]; [6]): 11.7 µM

C=CC(=O)Nc1ccccc1Nc1cccc(C(F)(F)F)c1 [Example 12]
max (inhibition) in the EC50 assay (TEAD4.Yap1 interaction [2]; as tested described herein): 23%
EC50 (TEAD4.Yap1 interaction [2]; [6]): 13.7 µM

Cn1nnc2c(C(N)=O)ncn2c1=O [Temozolomide, temozolomide, reference compound]
EC50 [5]: 244 ± 24 µM

NC(=O)CI [iodoacetamide, reference compound]
adduct formation with TEAD4 (TEAD4 [1]; 5 μM TEAD4, 12.5, 50, 200 μM at 4° C., after 6 h): modified by a single adduct
inhibition of TEAD4.Yap1 interaction (TEAD4.Yap1 interaction [2]): unable to inhibit
modification of TEAD4 Cys367Ser mutant (TEAD4 Cys367Ser mutant): no modification of the protein, except for a small adduct that was detected only at 200 μM
